Measurements from patent US9303009B2, “Migrastatins and uses thereof” (Sloan-Kettering Institute for Cancer Research, priority 2011, dated 2016).

Experiments:
water solubility = type: physicochemical; settings: water with 5% methanol, aqueous with cosolvent or surfactant or cyclodextrin; in the presence of 5% methanol
MDA231BrM2a cells = test: ex-vivo intra-brain migration assay on brain slices; type: cell-based, human; settings: 1 μM or 10 μM; 3 days
Source text: After extravasation through the BBB, cancer cells adhere to and migrate on the surface of brain capillaries. Prior to the present disclosure, the permeability of the BBB to cME was unknown. To investigate the ability of cME to inhibit cancer cell migration over capillaries once the cells have infiltrated the brain, we used an ex-vivo intra-brain migration assay. Brain slices from untreated mice were placed in organotypic cultures. Each slice was placed on an inertporous membrane over cell culture medium. MDA231BrM2a cells (3×10^4 cells) were plated on top of the brain slices (FIG. 2, top). After 3 days, the cancer cells had infiltrated the brain tissue mass, migrated towards capillaries (Col. IV in FIG. 2) and migrated on the capillary network of the tissue slice (FIG. 2, bottom). […] In the presence of cME, the cancer cells remained round and on the surface of the brain slice, without migrating towards and over the vascular network (FIG. 2, bottom right).

[1] = test system: multiple myeloma (RPMI8226, MM1S, ARP-GL, CAG-GL, OPM2-GL, SKO-007-GL, U266-GL, MM1R cells); test: toxicity by alamarBlue, multiple myeloma cell lines; type: cell-based, human; settings: mean of 8 cell lines
Method: The toxicity of compounds 42-45 and their IC50 was determined on a panel of human tumor cell lines of multiple myeloma (RPMI8226, MM1S, MM1R, ARP-GL, CAG-GL, OPM2-GL, SKO-007-GL, U266-GL,) and lung cancer (H299-GL, H522-GL, H647-GL, A549-GL, A549-GL, HI993, H1075-GL, HI373, H17030) origin. Tumor cells were dissociated into a single-cell suspension by Trypsin/Collagenase IV treatment and 500 cells per well were aliquoted into each well of 384 microwell plates in 50 μl of RPMI medium with 10% FCS. Compounds 42-45 were dissolved in DMSO and serially diluted in RPMI medium plus 10% FCS and added (1 mM to 1 nM) to quadruplicate wells containing tumor cells. Dilutions of DMSO without compound were used as a control. After 18 hrs or 2 days, the cultures were pulsed with 6 μl of alamarBlue® (Invitrogen Inc. Grand Island, N.Y.) and incubated overnight. The alamarBlue® provides a cell growth indicator based on detection of metabolic activity. The assay system incorporates an oxidation-reduction indicator that both fluoresces and changes color in response to chemical reduction of growth medium resulting from cell growth. The fluorescence intensity was measured using a Synergy H1 Microplate Reader (Biotek Inc, Winooski, VT) and a dose-response curve established for IC50 determination.

H1975 = test: transwell migration (modified Boyden chamber, serum gradient); type: cell-based; settings: Homo sapiens, NCI-H1975, 12 hour migration, mean +/- SEM of three experiments, read-out: IC50, inhibition of transwell migration
Method: Migration assay: Cancer cell chemotaxis was performed towards a serum gradient in a modified Boyden chamber consisting of a cell culture insert (6.4 mm diameter, 8-μm pore polyethylene tetraphtalate membrane, [Becton Dickenson]) seated in each well of a 24-well companion plate (Becton Dickinson). Briefly, cancer cells were grown as subconfluent monolayer cultures then starved for 36 hours in serum-free M5 medium. After detachment and dissociation with 5 mM EDTA, single-cell suspensions were prepared by filtration through a 35 μm mesh cell strainer (Becton Dickinson). Cells were counted and a total of 10^5 cells suspended in serum-free medium were seeded into the upper chamber of an insert, then positioned in a 24-well plate, containing medium with or without 10% serum. […] For quantification, three randomly selected fields on the lower side of the insert were photographed at 4× and 20× magnification using computer-assisted microscopy, and analyzed with CellProfiler2.0 cell image analysis software). The migration in response to the test condition was calculated relative to the DMSO vehicle control. […]
Lung Cancer cell lines chemotaxis was performed in cell culture inserts after serum starvation and an overnight preincubation with an incremental logarithmic scale of drug concentration (ME and CME from 10^−3 to 10^−10M). […] Data are expressed as the mean+/−SEM of three independent experiments. […]

Compound: CO[C@H]1/C=C/CCCCCOC/C(C)=C\[C@@H](C)[C@@H]1OCC(=O)O [CME, Carboxymethyl migraether]
- solubility (water solubility): 200 to 300 µg/mL
- migration of cancer cells towards and over the capillary network of the brain slice (MDA231BrM2a cells): strongly inhibited
- Estimated lethal doses (LD50) ([1]; 18 h exposure): 503.6 µM
- Estimated lethal doses (LD50) ([1]; 48 h exposure): 452.9 µM
- IC50 (H1975): 510 ± 420 nM

Compound: CO[C@H]1/C=C/CCCCCOC/C(C)=C\[C@@H](C)[C@@H]1O [ME, migrastatin ether]
- Estimated lethal doses (LD50) ([1]; 18 h exposure): 794.8 µM
- Estimated lethal doses (LD50) ([1]; 48 h exposure): 881.7 µM
- IC50 (H1975): 1510 ± 690 nM
